Columns and labels:
[1] = in vivo efficacy, LOX (melanoma) tumor model; parameters: species or system athymic mice; details: athymic, mouse, in vivo, intravenous, QD X5, intravenous
Description: (§1) NSC 694501 was evaluated for in vivo efficacy in athymic mice bearing 8 subcutaneous tumor models: LOX and UACC-62 (melanoma), OVCAR-3 and OVCAR-5 (ovarian ca), MDA-MB-435 (breastca), SF-295 and C-6 (glioma), and LS-174T (colonca). The models were selected on the basis of hollow fiber assays and in vitro time course assays.
(§2) A qDx5 schedule conferred better efficacy than a q4Dx3 schedule in each of the 4 models tested on two schedules. NSC 694501 was active over a wide dosage range in athymic mice using compound prepared fresh just prior to injection in 1% EtOH vehicle: On a qDx5 schedule, the maximum tolerated dose was approximately 120 μg/kg/dose and the minimum effective dose in one of the most sensitive models (SF-295) was 16 μg/kg/dose.

LOX (melanoma) = assay: in vivo efficacy, LOX (melanoma) tumor model; parameters: species or system athymic mice; details: intravenous
Description: as §1, §2

[2] = in vivo efficacy, UACC-62 (melanoma) subcutaneous tumor model; parameters: species or system athymic mice; details: athymic, mouse, in vivo, UACC-62, Early-SC
Description: as §1, §2

UACC-62 (melanoma) = assay: as above; parameters: species or system athymic mice; details: UACC-62, Early-SC, intravenous
Description: as §1, §2

[3] = in vivo efficacy, OVCAR-5 (ovarian ca) subcutaneous tumor model; parameters: species or system athymic mice; details: athymic, mouse, in vivo, OVCAR-5, Early-SC
Description: as §1, §2

OVCAR-5 (ovarian ca) = assay: as above; parameters: species or system athymic mice; details: OVCAR-5, Early-SC, intravenous
Description: as §1, §2

C-6 (rat glioma) = assay: in vivo efficacy, C-6 (rat glioma) in nude rats; details: i.v.; for BW Loss / Growth Delay % [(T − C)/C] / Optimal % T/C: C-6, Early-SC, nude rats
[4] = test system: LS-174 (human colon cancer); assay: in vivo efficacy, LS-174 (human colon cancer) in nude rats; details: i.v.; for BW Loss / Growth Delay % [(T − C)/C] / Optimal % T/C: LS-174, Early-SC, nude rats
[5] = Early-SC, QD X5, 0.054 mg/kg/dose

Structure (SMILES): C=C1C[C@H]2C=Nc3cc(OCCCOc4cc5c(cc4OC)C(=O)N4CC(=C)C[C@H]4C=N5)c(OC)cc3C(=O)N2C1 [NSC 694501]
- MTD at 5 days ([1]; Early-SC): 0.054 mg/kg
- MTD at 5 days ([1]; IP): 0.4 mg/kg
- BW Loss (LOX (melanoma); [5]): 17.6%
- Growth Delay % [(T − C)/C] (LOX (melanoma); [5]): 498%
- Optimal % T/C (LOX (melanoma); [5]): 7%
- value in parentheses in Growth Delay column (LOX (melanoma); [5]): 4.3 L
- BW Loss (LOX (melanoma); IP, QD X5, 0.40 mg/kg/dose): 20.7%
- ILS (LOX (melanoma); IP, QD X5, 0.40 mg/kg/dose): [−10% ILS]
- MTD at 9 days ([2]; Q4D X3, intravenous): 0.45 mg/kg
- MTD at 5 days ([2]; QD X5, intravenous): 0.054 mg/kg
- BW Loss (UACC-62 (melanoma); Q4D X3, .45 mg/kg/dose): 20.9%
- Growth Delay % [(T − C)/C] (UACC-62 (melanoma); Q4D X3, .45 mg/kg/dose): 43%
- Optimal % T/C (UACC-62 (melanoma); Q4D X3, .45 mg/kg/dose): 28%
- BW Loss (UACC-62 (melanoma); QD X5, 0.054 mg/kg/dose): 20.2%
- Growth Delay % [(T − C)/C] (UACC-62 (melanoma); QD X5, 0.054 mg/kg/dose): 150%
- Optimal % T/C (UACC-62 (melanoma); QD X5, 0.054 mg/kg/dose): 26%
- value in parentheses in Growth Delay column (UACC-62 (melanoma); QD X5, 0.054 mg/kg/dose): 0.9 L
- MTD at 9 days ([3]; Q4D X3, intravenous): 0.45 mg/kg
- MTD at 5 days ([3]; QD X5, intravenous): 0.081 mg/kg
- BW Loss (OVCAR-5 (ovarian ca); Q4D X3, 0.45 mg/kg/dose): 21.2%
- Growth Delay % [(T − C)/C] (OVCAR-5 (ovarian ca); Q4D X3, 0.45 mg/kg/dose): 32%
- Optimal % T/C (OVCAR-5 (ovarian ca); Q4D X3, 0.45 mg/kg/dose): 38%
- BW Loss (OVCAR-5 (ovarian ca); QD X5, 0.081 mg/kg/dose): 2.6%
- Growth Delay % [(T − C)/C] (OVCAR-5 (ovarian ca); QD X5, 0.081 mg/kg/dose): 102%
- Optimal % T/C (OVCAR-5 (ovarian ca); QD X5, 0.081 mg/kg/dose): 13%
- BW Loss (C-6 (rat glioma); QD X5, 0.018 mg/kg): 0.0%
- Growth Delay % [(T − C)/C] (C-6 (rat glioma); QD X5, 0.018 mg/kg): 13%
- Optimal % T/C (C-6 (rat glioma); QD X5, 0.018 mg/kg): 56%
- BW Loss (C-6 (rat glioma); QD X5, 0.027 mg/kg): 6.3%
- Growth Delay % [(T − C)/C] (C-6 (rat glioma); QD X5, 0.027 mg/kg): 20%
- Optimal % T/C (C-6 (rat glioma); QD X5, 0.027 mg/kg): 47%
- BW Loss (C-6 (rat glioma); QD X5, 0.040 mg/kg): 0.8%
- Growth Delay % [(T − C)/C] (C-6 (rat glioma); QD X5, 0.040 mg/kg): 49%
- Optimal % T/C (C-6 (rat glioma); QD X5, 0.040 mg/kg): 24%
- tolerability and efficacy (C-6 (rat glioma); nude rats bearing C-6, 27 and 40 μg/kg/dose, qDx5): well tolerated and efficacious
- BW Loss ([4]; QD X5, 0.018 mg/kg): 0.0%
- Growth Delay % [(T − C)/C] ([4]; QD X5, 0.018 mg/kg): 43%
- Optimal % T/C ([4]; QD X5, 0.018 mg/kg): 41%
- BW Loss ([4]; QD X5, 0.027 mg/kg): 2.2%
- Growth Delay % [(T − C)/C] ([4]; QD X5, 0.027 mg/kg): 93%
- Optimal % T/C ([4]; QD X5, 0.027 mg/kg): 21%
- BW Loss ([4]; QD X5, 0.040 mg/kg): 1.4%
- Growth Delay % [(T − C)/C] ([4]; QD X5, 0.040 mg/kg): 83%
- Optimal % T/C ([4]; QD X5, 0.040 mg/kg): 17%
- tolerability and efficacy ([4]; nude rats bearing LS-174, 27 and 40 μg/kg/dose, qDx5): well tolerated and efficacious

Reference: patent US7834005B2, “Pyrrolobenzodiazepine derivatives, compositions comprising the same and methods related thereto” (The United States of America as represented by the …, priority 2003, dated 2010)
